These results are taken from patent US10716765B2, “Delivery of functional compounds” (Intercontinental Great Brands LLC, priority 2009, dated 2020).

For data set [1] the following is noted: versus linalool and thymol, FIG. 3; cited from earlier work.
The nature of data set [2]: In vitro digestion model simulating stomach and small intestine conditions. Type of data set: in vitro ADME. From the text:
This example compares the release of the non-esterified functional ingredient to the esterified functional ingredient during a simulated gastrointestinal study using an in vitro digestion model.
In addition, the partition coefficients for the ester compounds are greater than the parent compounds. These factors indicate that the ester compounds have a greater affinity for the hydrophobic carrier and insoluble matrix material than the parent compounds. […] The reduced rate is most evident when comparing linalool and thymol release from FIG. 4 to linalyl acetate and thymyl acetate release from FIG. 5. This improvement in stability within the model stomach implies increased stability in other low pH systems, such as acidic beverages, and further illustrates the importance of the esters for successful microencapsulation and enteric release of the functional ingredients.
As evident in FIGS. 4 and 5, the gastric release rate was reduced, as well as the release rate from 0-24.5 h, representative of the residence time in the small intestine. FIGS. 6 and 7 show the release rates of two esters of linalool, linalyl acetate in FIG. 6 and linalyl butyrate in FIG. 7 within a digestion model simulating stomach and small intestine conditions and residence times. In addition, the levels of the parent compounds present in the digestion model over time were measured. […]

Data set [3] in a line: Evaluation of emulsifiers in oil-in-water emulsion of essential oil blend. The settings on record: compared with other emulsifiers. Type of data set: physicochemical. From the text: Various emulsifiers were combined with deionized water at 60 C to produce 2% solutions. The resulting solutions were combined with an essential oil blend composition (4% alpha-pinene, 30% para-cymene, 7% linalool, and 35% thymol and 24% soybean oil) in a 50:50 weight ratio with deionized water to create an oil-in-water emulsion. The emulsifiers evaluated were Glycosperse S-20 KFG (Lonza; Fairlawn, N.J.), Polyaldo 10-1-O KFG (Lonza; Fairlawn, N.J.), Aldosperse MS-20 KFG (Lonza; Fairlawn, N.J.), Polyaldo 10-2-P KFG (Lonza; Fairlawn, N.J.), Ryoto sugar ester (S-1570, Mitsubishi-Kagaku Food Corp.; Tokyo, Japan), Precept 8120 (Central Soya; Fort Wayne, Ind.) and sodium caseinate (Alanate-180, New Zealand Dairy Board; Wellington, New Zealand).

With `CC(=O)Oc1cc(C)ccc1C(C)C` [thymyl acetate], in data set [1], the “partition coefficient compared with parent compounds” value is “greater” and the “solubility in water compared with parent compounds” value was “significantly lower”.
Regarding `C=CC(C)(CCC=C(C)C)OC(C)=O` (stereo not shown) [linalyl acetate], the “hydrolysis of the ester to linalool” value in data set [2] is “about 33%”. Besides, in data set [1], the “partition coefficient compared with parent compounds” value was “greater” and the “solubility in water compared with parent compounds” value is given as “significantly lower”.
As for `C=CC(C)(CCC=C(C)C)OC(=O)CCC` (stereo not shown) [linalyl butyrate], the “hydrolysis of the ester to linalool” value in data set [2] is listed as “about 5%”. In data set [1], the “partition coefficient compared with parent compounds” value is on record as “greater” and the “solubility in water compared with parent compounds” value was “significantly lower”.
In the case of sucrose stearate [Example S-1570], the “oil droplets within the emulsion” value in data set [3] (2% emulsifier solution, 50:50 with essential oil blend) is “smallest and most uniformly dispersed oil droplets”. In data set [3] (after 24 hours storage at room temperature), the emulsion stability result is on record as “greatest stability”.
